In paper PMC4188773 (Cell calcium, 2014):
Values after ≈ are worked out from the molar mass of the structure shown. Values joined by “and” are separate entries in the source; they are usually repeats but may differ in a detail not shown here. Identical values can stand only once. “Also recorded” adds a separate entry of the source. Like-named read-outs stand apart in the source and are kept apart here.

Experiments:
[1] = biological target: T1, mouse eugenol OR (mOR-EG) (Mus musculus, UniProt Q920P2); assay: mOR-EG/PLC Ca2+ imaging: mOR-EG + Gα15 in HEK293T cells; type: cell-based; details: for decay time 90% to 10%, PLC-dependent Ca2+ response / time of peak, PLC-dependent Ca2+ response / time to rise 10% to 90%, PLC-dependent Ca2+ response: saturating response parameters
T1 sequence (Q920P2 1-313): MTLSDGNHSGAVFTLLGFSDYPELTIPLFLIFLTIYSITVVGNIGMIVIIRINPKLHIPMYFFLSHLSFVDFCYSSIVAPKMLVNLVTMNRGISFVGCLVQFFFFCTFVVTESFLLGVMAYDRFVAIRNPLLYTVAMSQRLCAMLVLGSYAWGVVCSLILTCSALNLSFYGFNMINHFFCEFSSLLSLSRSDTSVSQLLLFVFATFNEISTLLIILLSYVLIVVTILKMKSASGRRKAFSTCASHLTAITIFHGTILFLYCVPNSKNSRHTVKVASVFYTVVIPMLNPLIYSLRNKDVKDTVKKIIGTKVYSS

[2] = source not stated; cited from earlier work
[3] = pH7; source not stated; cited from earlier work
[4] = biological target: T1, mouse eugenol OR (mOR-EG); assay: dual read-out assay, mOR-EG/PLC and mOR-EG/AC responses compared; type: cell-based; details: for functional bias between PLC and AC pathways (in words): pair-wise comparison of EC50 values; for AC-/PLC- mediated Ca2+ response (result in words): both read-outs, up to 1-5 mM; for potency in mOR-EG/PLC signaling in comparison to mOR-EG/AC signaling: ratio of EC50 values
[5] = biological target: T1, mouse eugenol OR (mOR-EG); assay: mOR-EG/AC Ca2+ imaging: mOR-EG + Gαolf + CNGC-camp in HEK293T cells; type: cell-based; details: for decay time 90% to 10%, AC-dependent Ca2+ response / time of peak, AC-dependent Ca2+ response / time to rise 10% to 90%, AC-dependent Ca2+ response: saturating response parameters; for normalized peak magnitude, mOR-EG/AC response: normalized to eugenol
mOR-EG = details: incubation at least 15 min; ref [22]; cited from earlier work
[6] = biological target: T1, mouse eugenol OR (mOR-EG); type: cell-based; details: up to 1 mM

Compound | decay time 90% to 10%, PLC-dependent Ca2+ response [1] | time of peak, PLC-dependent Ca2+ response [1] | time to rise 10% to 90%, PLC-dependent Ca2+ response [1] | logP [2] | solubility [3] | functional bias between PLC and AC pathways (in words) [4] | decay time 90% to 10%, AC-dependent Ca2+ response [5] | time of peak, AC-dependent Ca2+ response [5] | time to rise 10% to 90%, AC-dependent Ca2+ response [5] | AC-/PLC- mediated Ca2+ response (result in words) [4] | further results
C=CCc1ccc(OC)c(OC)c1 [methyl eugenol] | 39.8 ± 2.3 s | 19.8 ± 1.2 s | 5.4 ± 0.6 s | 2.7 | 4.3 mmol/L (≈ 766 µg/mL) | activated both pathways with similar EC50 values | 101.2 ± 6 s | 92 ± 3 s | 41.6 ± 2.2 s |  | EC50 [1]: 165 µM; EC50 [5]: 177 ± 11 µM
C/C=C/c1ccc(OC)c(OC)c1 [methyl isoeugenol] |  |  |  |  | 3.6/3.05 mmol/l |  |  |  |  | failed to activate any response; also recorded: did not evoke any appreciable Ca^2+ signal; also recorded: does not activate either pathway; also recorded: non agonist, antagonist | agonist activity in cAMP-dependent Cre reporter assay (mOR-EG): strong agonist; antagonism of eugenol-evoked Ca2+ response ([4]; 1mM with 100 μM eugenol, both mOR-EG/Gα15 and mOR-EG/Gαs(olf) cells): completely eliminated Ca^2+ response; also recorded: potent antagonist that inhibits eugenol activation of both the mOR-EG/PLC and mOR-EG/AC responses; response to prolonged application ([4]; data not shown): did not evoke any measurable response
COC(=O)c1c(C)cc(O)c(C)c1O [mousse cristal] | 74 ± 4 s | 30.7 ± 1.4 s | 14.1 ± 0.8 s and 14 ± 1 s | 10/2.8 |  | biased activation of the PLC pathway; also recorded: strongly activating both pathways yet with a different apparent affinity | 117.6 ± 5.3 s | 107.3 ± 2.4 s | 32.6 ± 1.6 s | full agonist for mOR-EG | potency in mOR-EG/PLC signaling in comparison to mOR-EG/AC signaling [4]: more than 2 fold; faster Trise of mOR-EG/AC response than eugenol [5]: 30%; normalized peak magnitude, mOR-EG/AC response [5]: 1.12±0.13
C=C(C)[C@@H]1CCC2=CC(=O)C[C@@H](C)[C@]2(C)C1 [nootkatone] |  |  |  | 3.8 | 0.24 mmol/L (≈ 52.4 µg/mL) |  |  |  |  | failed to activate any response; also recorded: no effects | 
CCC(C)(C)C1CCC(=O)CC1 [orivone] | 47.6 ± 4.1 s | 29.8 ± 2.3 s | 8 ± 1 s |  |  | activated both pathways with similar EC50 values | 101 ± 5 s | 94.9 ± 5.3 s | 36.4 ± 2.6 s |  | 
CC(=O)CCc1ccc(O)cc1 [raspberryketone, raspberry ketone] |  |  |  |  |  |  |  |  |  | no effects | AC-/PLC- mediated Ca2+ response (result in words) ([4]; listed as raspberry ketone): failed to activate any response
COc1cc(C=O)ccc1O [vanillin] | 48 ± 2.9 s | 18.6 ± 0.9 s | 8.3 ± 0.5 s |  | 28 mmol/L (≈ 4260 µg/mL) | activated both pathways with similar EC50 values | 101.7 ± 2.6 s | 85.3 ± 2.9 s | 31.4 ± 1.3 s |  | 
isoeugenol | 54.5 ± 2.6 s | 37.1 ± 3.5 s | 14.8 ± 1.6 s |  |  | biased activation of the PLC pathway | 104 ± 4.8 s | 95.3 ± 4.8 s | 36.7 ± 2.7 s |  | normalized peak magnitude, mOR-EG/PLC response ([1]; normalized to eugenol): 0.38±0.03; potency in mOR-EG/PLC signaling in comparison to mOR-EG/AC signaling [4]: ~ 8 fold; normalized peak magnitude, mOR-EG/AC response [5]: 0.14±0.11; slow Gαs(olf)-dependent response in dual-response cells [6]: failed to evoke noticeable Gαs(olf)-dependent Ca^2+ signal; slow Gαs(olf)-dependent response in dual-response cells ([6]; listed as Isoeugenol): not able to evoke a slow Gαs(olf)-dependent response
